From patent publication US8809359B2, “Phenyl amino pyrimidine bicyclic compounds and uses thereof” (YM Biosciences Australia Pty Ltd, priority 2012, dated 2014) come the findings set out here.

Read-outs that look alike come from different tables or passages of the source.

What all share (format): biochemical
One test has as its target JAK1 (Homo sapiens, UniProt P23458). The experiment in a line: Enzyme screening kinase assay, JAK1. On the procedure:
(§1) Kinase assays were performed based on the method reported by Anastassiadis, T; et al Nature Biotechnology (2011); 29 (11); p 1039-p 1045 (doi:10.1038/nbt.2017).

A further test deals with JAK2 (Homo sapiens, UniProt O60674). The experiment in a line: Enzyme screening kinase assay, JAK2. On the procedure: as §1
JAK2, sequence (O60674 whole entry): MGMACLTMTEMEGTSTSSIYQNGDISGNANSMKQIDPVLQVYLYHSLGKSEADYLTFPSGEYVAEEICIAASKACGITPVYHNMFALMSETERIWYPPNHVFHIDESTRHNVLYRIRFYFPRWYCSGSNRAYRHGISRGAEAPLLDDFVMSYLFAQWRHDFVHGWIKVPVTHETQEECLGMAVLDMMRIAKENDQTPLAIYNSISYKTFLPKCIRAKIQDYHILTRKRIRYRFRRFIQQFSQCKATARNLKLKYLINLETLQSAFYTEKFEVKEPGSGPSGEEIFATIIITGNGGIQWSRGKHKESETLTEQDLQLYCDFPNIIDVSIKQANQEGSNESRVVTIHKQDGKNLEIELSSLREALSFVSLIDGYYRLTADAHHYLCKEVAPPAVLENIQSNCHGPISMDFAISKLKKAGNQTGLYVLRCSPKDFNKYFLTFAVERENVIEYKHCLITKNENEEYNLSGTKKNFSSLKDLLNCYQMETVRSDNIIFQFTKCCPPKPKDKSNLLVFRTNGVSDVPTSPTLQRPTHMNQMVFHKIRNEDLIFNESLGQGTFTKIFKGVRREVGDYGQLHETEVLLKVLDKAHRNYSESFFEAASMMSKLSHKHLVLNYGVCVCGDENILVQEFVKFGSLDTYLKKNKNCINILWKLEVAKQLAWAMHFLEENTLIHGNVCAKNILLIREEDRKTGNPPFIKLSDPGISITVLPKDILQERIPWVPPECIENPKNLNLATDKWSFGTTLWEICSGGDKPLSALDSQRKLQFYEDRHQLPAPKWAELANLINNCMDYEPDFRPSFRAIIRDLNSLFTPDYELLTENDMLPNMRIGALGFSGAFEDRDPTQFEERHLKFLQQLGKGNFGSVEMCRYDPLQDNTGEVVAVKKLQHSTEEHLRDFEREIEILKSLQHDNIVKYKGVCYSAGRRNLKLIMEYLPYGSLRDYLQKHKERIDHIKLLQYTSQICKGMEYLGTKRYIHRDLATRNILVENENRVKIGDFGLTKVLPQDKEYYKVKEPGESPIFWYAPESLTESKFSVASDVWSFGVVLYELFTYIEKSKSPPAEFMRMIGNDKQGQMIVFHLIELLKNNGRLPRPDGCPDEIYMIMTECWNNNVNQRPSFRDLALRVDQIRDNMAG
For a further test, the target named is T1, JAK3 (Homo sapiens, UniProt P52333).
T1 sequence (P52333 1-1124): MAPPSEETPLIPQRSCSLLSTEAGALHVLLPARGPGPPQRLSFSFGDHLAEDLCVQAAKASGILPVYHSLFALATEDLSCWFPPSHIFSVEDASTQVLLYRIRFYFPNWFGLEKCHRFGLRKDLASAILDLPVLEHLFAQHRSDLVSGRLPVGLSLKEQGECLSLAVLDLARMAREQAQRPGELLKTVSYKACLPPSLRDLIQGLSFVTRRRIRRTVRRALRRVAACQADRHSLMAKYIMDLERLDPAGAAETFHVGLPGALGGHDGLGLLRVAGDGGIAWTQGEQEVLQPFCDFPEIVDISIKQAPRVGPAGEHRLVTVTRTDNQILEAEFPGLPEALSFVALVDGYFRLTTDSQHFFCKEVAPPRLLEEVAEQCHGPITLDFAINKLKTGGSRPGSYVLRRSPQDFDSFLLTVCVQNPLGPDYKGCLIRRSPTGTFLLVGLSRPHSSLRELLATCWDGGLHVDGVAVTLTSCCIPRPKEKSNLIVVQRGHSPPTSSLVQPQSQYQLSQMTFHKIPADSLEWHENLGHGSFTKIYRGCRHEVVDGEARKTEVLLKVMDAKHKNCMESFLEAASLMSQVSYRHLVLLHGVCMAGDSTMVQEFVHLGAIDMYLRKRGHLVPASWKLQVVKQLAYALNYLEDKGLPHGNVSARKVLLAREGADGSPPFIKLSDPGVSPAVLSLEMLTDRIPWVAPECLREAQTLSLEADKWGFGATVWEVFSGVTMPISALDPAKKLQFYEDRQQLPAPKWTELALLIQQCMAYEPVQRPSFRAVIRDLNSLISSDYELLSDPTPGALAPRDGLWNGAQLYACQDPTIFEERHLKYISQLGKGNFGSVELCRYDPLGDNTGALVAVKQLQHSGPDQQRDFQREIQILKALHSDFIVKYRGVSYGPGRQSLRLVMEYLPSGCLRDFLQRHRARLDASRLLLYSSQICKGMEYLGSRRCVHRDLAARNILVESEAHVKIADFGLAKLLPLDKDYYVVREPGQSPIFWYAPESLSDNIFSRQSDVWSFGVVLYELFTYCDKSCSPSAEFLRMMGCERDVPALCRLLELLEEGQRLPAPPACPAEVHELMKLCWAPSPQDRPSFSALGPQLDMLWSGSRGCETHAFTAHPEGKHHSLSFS
The experiment in a line: Enzyme screening kinase assay, JAK3. On the procedure: as §1

Another test deals with TYK2 (Homo sapiens, UniProt P29597). The experiment in a line: Enzyme screening kinase assay, TYK2. On the procedure:
as §1

Where [1] appears, read: Data 1, read-out: JAK1 IC50 Data 1.
Setting [2] is: Data 2, read-out: JAK1 IC50 Data 2.
The mark [3] stands for this setting: Data 1, read-out: JAK2 IC50 Data 1.
[4] abbreviates: Data 2, read-out: JAK2 IC50 Data 2.
[5] abbreviates: Data 1, read-out: JAK3 IC50 Data 1.
[6] abbreviates: Data 2, read-out: JAK3 IC50 Data 2.
Setting [7] is: Data 1, read-out: TYK2 IC50 Data 1.
The mark [8] stands for this setting: Data 2, read-out: TYK2 IC50 Data 2.

JAK1, sequence (P23458 whole entry): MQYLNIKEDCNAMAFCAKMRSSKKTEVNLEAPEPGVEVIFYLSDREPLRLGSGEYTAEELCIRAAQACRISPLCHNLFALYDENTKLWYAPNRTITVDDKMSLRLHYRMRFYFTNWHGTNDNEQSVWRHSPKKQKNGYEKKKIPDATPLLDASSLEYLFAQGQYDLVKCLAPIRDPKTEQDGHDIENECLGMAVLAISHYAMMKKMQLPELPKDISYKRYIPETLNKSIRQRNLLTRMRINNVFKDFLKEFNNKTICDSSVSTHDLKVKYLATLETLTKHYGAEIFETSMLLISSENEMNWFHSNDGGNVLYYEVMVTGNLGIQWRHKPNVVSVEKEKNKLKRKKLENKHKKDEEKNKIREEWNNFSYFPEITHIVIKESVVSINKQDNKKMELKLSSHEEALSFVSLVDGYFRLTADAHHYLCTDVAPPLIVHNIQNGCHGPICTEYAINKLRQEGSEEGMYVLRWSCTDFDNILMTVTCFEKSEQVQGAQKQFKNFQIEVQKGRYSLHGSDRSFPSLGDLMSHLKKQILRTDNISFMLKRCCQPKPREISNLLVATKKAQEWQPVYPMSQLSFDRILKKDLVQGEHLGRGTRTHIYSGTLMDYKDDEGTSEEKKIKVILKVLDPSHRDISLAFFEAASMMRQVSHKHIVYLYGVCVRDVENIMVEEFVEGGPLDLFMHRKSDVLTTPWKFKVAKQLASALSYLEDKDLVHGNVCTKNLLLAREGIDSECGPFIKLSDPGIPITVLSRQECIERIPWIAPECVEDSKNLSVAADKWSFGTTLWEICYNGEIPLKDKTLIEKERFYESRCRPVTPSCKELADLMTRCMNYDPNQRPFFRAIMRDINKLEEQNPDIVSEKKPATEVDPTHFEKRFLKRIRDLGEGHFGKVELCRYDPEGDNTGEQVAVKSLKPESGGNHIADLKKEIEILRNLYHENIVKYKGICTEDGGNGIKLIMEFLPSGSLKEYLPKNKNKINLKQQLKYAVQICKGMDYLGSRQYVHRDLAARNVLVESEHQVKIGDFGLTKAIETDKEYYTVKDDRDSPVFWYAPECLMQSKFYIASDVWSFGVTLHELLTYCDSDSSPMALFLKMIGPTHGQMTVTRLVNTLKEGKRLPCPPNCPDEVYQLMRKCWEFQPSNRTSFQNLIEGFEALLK
TYK2, sequence (P29597 whole entry): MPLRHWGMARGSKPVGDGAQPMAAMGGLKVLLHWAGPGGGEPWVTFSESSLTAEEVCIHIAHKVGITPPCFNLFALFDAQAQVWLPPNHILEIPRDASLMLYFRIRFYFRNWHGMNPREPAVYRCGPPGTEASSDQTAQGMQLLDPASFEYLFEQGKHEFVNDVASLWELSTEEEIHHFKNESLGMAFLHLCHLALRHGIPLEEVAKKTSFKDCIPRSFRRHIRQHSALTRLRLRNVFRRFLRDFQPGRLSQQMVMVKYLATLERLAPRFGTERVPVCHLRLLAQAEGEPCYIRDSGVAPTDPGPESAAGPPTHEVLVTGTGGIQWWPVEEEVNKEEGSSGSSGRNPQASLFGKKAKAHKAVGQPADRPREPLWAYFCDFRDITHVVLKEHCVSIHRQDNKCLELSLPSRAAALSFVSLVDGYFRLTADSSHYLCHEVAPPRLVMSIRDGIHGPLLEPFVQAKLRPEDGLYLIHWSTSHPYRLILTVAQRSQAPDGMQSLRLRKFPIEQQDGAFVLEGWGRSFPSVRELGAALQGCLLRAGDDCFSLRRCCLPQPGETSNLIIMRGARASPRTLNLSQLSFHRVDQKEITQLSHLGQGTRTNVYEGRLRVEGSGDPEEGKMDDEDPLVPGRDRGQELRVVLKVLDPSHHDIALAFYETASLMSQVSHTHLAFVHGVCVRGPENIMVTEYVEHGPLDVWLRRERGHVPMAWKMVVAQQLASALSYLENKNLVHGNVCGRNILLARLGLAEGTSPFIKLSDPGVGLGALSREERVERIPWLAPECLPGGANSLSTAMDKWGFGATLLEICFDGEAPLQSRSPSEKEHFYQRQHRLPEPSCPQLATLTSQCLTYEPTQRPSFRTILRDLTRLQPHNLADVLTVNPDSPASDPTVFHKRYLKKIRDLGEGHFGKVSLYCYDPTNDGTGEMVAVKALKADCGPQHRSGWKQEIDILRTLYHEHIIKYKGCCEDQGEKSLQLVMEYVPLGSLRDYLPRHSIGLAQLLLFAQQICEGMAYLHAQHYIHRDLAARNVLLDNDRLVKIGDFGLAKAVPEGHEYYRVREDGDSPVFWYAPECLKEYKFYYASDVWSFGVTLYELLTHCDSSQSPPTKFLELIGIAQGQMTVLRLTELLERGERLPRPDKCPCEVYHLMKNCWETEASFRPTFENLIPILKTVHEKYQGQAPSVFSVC

In general, IC50 refers to the point on the concentration scale where inhibition reaches its midpoint. Regarding `N#CCNC(=O)c1ccc(-c2ccnc(Nc3ccc(N4CCC5(CCO5)CC4)cc3)n2)cc1` [Compound 2, 4-(2-((4-(1-oxa-7-azaspiro[3.5]nonan-7-yl)phenyl)amino)pyrimidin-4-yl)-N-(cyanomethyl)benzamide], the IC50 on JAK1 (setting [1]) is 30.6 nM; on JAK1 (setting [2]), 37.9 nM; at JAK2 (setting [3]), 22.2 nM; on JAK2 (setting [4]) it was 24.5 nM; at JAK3 (setting [5]), 41.8 nM; at JAK3 (setting [6]) it was 44.8 nM. The IC50 turned out to be 5.09 nM on TYK2 (setting [7]) and 5.65 nM at TYK2 (setting [8]).

Take `N#CCNC(=O)c1ccc(-c2ccnc(Nc3ccc(N4CC5CCC(C4)O5)cc3)n2)cc1` [Compound 4, 4-(2-((4-(8-oxa-3-azabicyclo[3.2.1]octan-3-yl)phenyl)amino)pyrimidin-4-yl)-N-(cyanomethyl)benzamide]: the 50% inhibitory concentration (IC50) on JAK1 (setting [1]) turned out to be 28.8 nM; on JAK1 (setting [2]), 28.6 nM; at JAK2 (setting [3]) it was 29.3 nM; at JAK2 (setting [4]), 29.1 nM; at JAK3 (setting [5]), 92.3 nM; at JAK3 (setting [6]), 80.8 nM. Besides, the concentration for half-maximal inhibition (IC50) was determined as 5.22 nM at TYK2 (setting [7]) and 6.17 nM at TYK2 (setting [8]).

Consider `N#CCNC(=O)c1ccc(-c2ccnc(Nc3ccc(N4CC5CC(C4)O5)cc3)n2)cc1` [Compound 3, 4-(2-((4-(6-oxa-3-azabicyclo[3.1.1]heptan-3-yl)phenyl)amino)pyrimidin-4-yl)-N-(cyanomethyl)benzamide], for which the half-maximal inhibitory concentration (IC50) at JAK1 (setting [1]) stood at 32.3 nM; on JAK1 (setting [2]), 41.7 nM; at JAK2 (setting [3]), 47 nM; on JAK2 (setting [4]), 45 nM; on JAK3 (setting [5]), 80.1 nM; on JAK3 (setting [6]), 82.4 nM. Also, the IC50 was 6.83 nM at TYK2 (setting [7]) and 7.3 nM on TYK2 (setting [8]).

On to `N#CCNC(=O)c1ccc(-c2ccnc(Nc3ccc(N4C[C@H]5C[C@@H]4CO5)cc3)n2)cc1` [Compound 10, 4-(2-((4-((1R,4R)-2-oxa-5-azabicyclo[2.2.1]heptan-5-yl)phenyl)amino)pyrimidin-4-yl)-N-(cyanomethyl)benzamide], for which the IC50 came out at 16 nM on JAK1 (setting [1]); 15.9 nM at JAK1 (setting [2]); 17 nM at JAK2 (setting [3]); 16.8 nM at JAK2 (setting [4]); 22.1 nM on JAK3 (setting [5]); 27 nM on JAK3 (setting [6]). For the same molecule, the IC50 was 4.31 nM at TYK2 (setting [7]) and 2.58 nM on TYK2 (setting [8]).

With `N#CCNC(=O)c1ccc(-c2ccnc(Nc3ccc(N4CC5(CCO5)C4)cc3)n2)cc1` [Compound 1, 4-(2-((4-(1-oxa-6-azaspiro[3.3]heptan-6-yl)phenyl)amino)pyrimidin-4-yl)-N-(cyanomethyl)benzamide], the 50% inhibitory concentration (IC50) at JAK1 (setting [1]) came out at 224 nM; at JAK1 (setting [2]), 215 nM; on JAK2 (setting [3]), 108 nM; at JAK2 (setting [4]) it was 103 nM; at JAK3 (setting [5]), 213 nM; at JAK3 (setting [6]) it was 194 nM. Moreover, the IC50 worked out at 38 nM on TYK2 (setting [7]) and 35 nM on TYK2 (setting [8]).

With `N#CCNC(=O)c1ccc(-c2ccnc(Nc3ccc(N4CC5(COC5)C4)cc3)n2)cc1` [Compound 11, 4-(2-((4-(2-oxa-6-azaspiro[3.3]heptan-6-yl)phenyl)amino)pyrimidin-4-yl)-N-(cyanomethyl)benzamide], the IC50 was found to be 32.8 nM on JAK1 (setting [1]); 47.4 nM at JAK1 (setting [2]); 10.6 nM at JAK2 (setting [3]); 10.8 nM on JAK2 (setting [4]); 33.8 nM on JAK3 (setting [5]); 26.3 nM at JAK3 (setting [6]). Moreover, the half-inhibitory concentration (IC50) on TYK2 (setting [7]) is 9.47 nM; at TYK2 (setting [8]), 8.54 nM.

For `N#CCNC(=O)c1ccc(-c2ccnc(Nc3ccc(N4CC[C@@]5(CCO5)C4)cc3)n2)cc1` [Compound 8, (R)-4-(2-((4-(1-oxa-6-azaspiro[3.4]octan-6-yl)phenyl)amino)pyrimidin-4-yl)-N-(cyanomethyl)benzamide], the concentration for half-maximal inhibition (IC50) on JAK1 (setting [1]) stood at 56.9 nM; on JAK1 (setting [2]), 35.7 nM; at JAK2 (setting [3]), 43.5 nM; at JAK2 (setting [4]), 46.4 nM; at JAK3 (setting [5]), 79.3 nM; at JAK3 (setting [6]) it was 78.5 nM. Moreover, the IC50 on TYK2 (setting [7]) and on TYK2 (setting [8]) was 9.98 nM in each case.

For `N#CCNC(=O)c1ccc(-c2ccnc(Nc3ccc(N4CC[C@]5(CCO5)C4)cc3)n2)cc1` [Compound 7, (S)-4-(2-((4-(1-oxa-6-azaspiro[3.4]octan-6-yl)phenyl)amino)pyrimidin-4-yl)-N-(cyanomethyl)benzamide], the IC50 on JAK1 (setting [1]) worked out at 31.5 nM; on JAK1 (setting [2]) it was 29.2 nM; on JAK2 (setting [3]), 30.3 nM; at JAK2 (setting [4]), 34 nM; at JAK3 (setting [5]), 60.9 nM; on JAK3 (setting [6]), 50.8 nM. Besides, the IC50 was 4.87 nM at TYK2 (setting [7]) and 4.29 nM at TYK2 (setting [8]).

On to `N#CCNC(=O)c1ccc(-c2ccnc(Nc3ccc(N4CCC[C@]5(CCO5)C4)cc3)n2)cc1` [Compound 5, (S)-4-(2-((4-(1-oxa-6-azaspiro[3.5]nonan-6-yl)phenyl)amino)pyrimidin-4-yl)-N-(cyanomethyl)benzamide], for which the IC50 at JAK1 (setting [1]) stood at 10.1 nM; at JAK1 (setting [2]), 10.2 nM; at JAK2 (setting [3]), 30 nM; at JAK2 (setting [4]) it was 25.9 nM; on JAK3 (setting [5]), 60.9 nM; on JAK3 (setting [6]), 56.3 nM. Besides, the 50% inhibitory concentration (IC50) was 0.69 nM on TYK2 (setting [7]) and 0.91 nM at TYK2 (setting [8]).

Turning to `N#CCNC(=O)c1ccc(-c2ccnc(Nc3ccc(N4CCC[C@@]5(CCO5)C4)cc3)n2)cc1` [Compound 6, (R)-4-(2-((4-(1-oxa-6-azaspiro[3.5]nonan-6-yl)phenyl)amino)pyrimidin-4-yl)-N-(cyanomethyl)benzamide], the half-inhibitory concentration (IC50) at JAK1 (setting [1]) worked out at 17.5 nM; at JAK1 (setting [2]), 19.8 nM; at JAK2 (setting [3]), 14.2 nM; on JAK2 (setting [4]) it was 14.1 nM; on JAK3 (setting [5]) it was 33.4 nM; at JAK3 (setting [6]), 32.7 nM. The 50% inhibitory concentration (IC50) on TYK2 (setting [7]) came out at 2.94 nM; on TYK2 (setting [8]), 2.14 nM.

`N#CCNC(=O)c1ccc(-c2ccnc(Nc3ccc(N4C[C@@H]5C[C@H]4CO5)cc3)n2)cc1` [Compound 9, 4-(2-((4-((1S,4S)-2-oxa-5-azabicyclo[2.2.1]heptan-5-yl)phenyl)amino)pyrimidin-4-yl)-N-(cyanomethyl)benzamide]: the IC50 at JAK1 (setting [1]) worked out at 22.4 nM; on JAK1 (setting [2]), 21.7 nM; at JAK2 (setting [3]) it was 11.1 nM; on JAK2 (setting [4]) it was 13.4 nM; on JAK3 (setting [5]), 12.8 nM; on JAK3 (setting [6]), 14 nM. Further, the concentration for half-maximal inhibition (IC50) amounted to 8.07 nM at TYK2 (setting [7]) and 7.4 nM on TYK2 (setting [8]).
